According to patent US5672609A, “Pyridine compounds, intermediates compositions and methods of use” (Eli Lilly and Company, priority 1996, dated 1997):

Key:
Assay type in all cases: in vivo, female Sprague Dawley rats
uterus = experiment: Uterine weight in ovariectomized rats, 4-day oral dosing (Table 1); settings: Rattus norvegicus, po, 96 h, OVX rats, daily for 4 days, read-out: Uterine Wt. (% inc. vs. OVX); for change in vivo at 1 mg/kg: 1 mg/kg oral; for change in vivo at 10 mg/kg: 10 mg/kg oral; for change in vivo at 25 mg/kg: 25 mg/kg oral; for change in vivo at 0.1 mg/kg: 0.1 mg/kg oral
Method: In the examples illustrating the methods, a post-menopausal model was used in which effects of different treatments upon circulating lipids were determined.
(§1) Seventy-five day old female Sprague Dawley rats (weight range of 200 to 225 g) were obtained from Charles River Laboratories (Portage, Mich.). The animals were either bilaterally ovariectomized (OVX) or exposed to a sham surgical procedure at Charles River Laboratories, and then shipped after one week. Upon arrival, they were housed in metal hanging cages in groups of 3 or 4 per cage and had ad libitum access to food (calcium content approximately 0.5%) and water for one week. Room temperature was maintained at 22.2° ±1.7° C. with a minimum relative humidity of 40%. The photoperiod in the room was 12 hours light and 12 hours dark.
(§2) Dosing Regimen Tissue Collection. After a one week acclimation period (therefore, two weeks post-OVX) daily dosing with test compound was initiated. 17α-ethynyl estradiol or the test compound were given orally, unless otherwise stated, as a suspension in 1% carboxymethylcellulose or dissolved in 20% cyclodextrin. Animals were dosed daily for 4 days. Following the dosing regimen, animals were weighed and anesthetized with a ketamine: Xylazine (2:1, V:V) mixture and a blood sample was collected by cardiac puncture. The animals were then sacrificed by asphyxiation with CO2, the uterus was removed through a midline incision, and a wet uterine weight was determined.
(§3) Data presented in Table 1 below show comparative results among ovariectomized rats, rats treated with 17α-ethynyl estradiol (EE2; an orally available form of estrogen), and rats treated with certain compounds of the present invention. […] This uterine response to estrogen is well recognized in the art.
(§4) The data presented in Table 1 below reflects the response of 5 to 6 rats per treatment.

[1] = system: Uterine Eosinophil Peroxidase (EPO); experiment: Uterine Eosinophil Peroxidase (EPO) Assay (Table 1); parameters: key to Uterine EPO (V. max): Vmax of absorbance increase at 450 nm, monitored over 1 min; settings: OVX rats, daily for 4 days
Source text: as §1, §2
Uterine Eosinomhil Peroxidase (EPO) Assay. Uteri were kept at 4° C. until time of enzymatic analysis. The uteri were then homogenized in 50 volumes of 50 mM Tris buffer (pH-8.0) containing 0.005% Triton X-100. Upon addition of 0.01% hydrogen peroxide and 10 mM O-phenylenediamine (final concentrations) in Tris buffer, increase in absorbance was monitored for one minute at 450 nm. The presence of eosinophils in the uterus is an indication of estrogenic activity of a compound. The maximal velocity of a 15 second interval was determined over the initial, linear portion of the reaction curve.
As is expressed in the below data, estrogenicity also was assessed by evaluating the response of eosinophil infiltration into the uterus.
as §4

Serum cholesterol = Serum cholesterol in ovariectomized rats, 4-day oral dosing (Table 1); settings: Rattus norvegicus, po, 96 h, OVX rats, daily for 4 days; for inhibition in vivo at 1 mg/kg: 1 mg/kg oral; for inhibition in vivo at 1 mg/kg / inhibition in vivo at 10 mg/kg / inhibition in vivo at 25 mg/kg / inhibition in vivo at 0.1 mg/kg: read-out: Serum Cholesterol (% dec. vs. OVX); for inhibition in vivo at 10 mg/kg: 10 mg/kg oral; for inhibition in vivo at 25 mg/kg: 25 mg/kg oral; for ED50: oral, dose column in mg/kg, read-out: ED50 (effective dose to dec. serum chol. by 50%); for inhibition in vivo at 0.1 mg/kg: 0.1 mg/kg oral
Source text: as §1, §2
Cholesterol Analysis. Blood samples were allowed to clot at room temperature for 2 hours, and serum was obtained following centrifugation for 10 minutes at 3000 rpm. Serum cholesterol was determined using a Boehringer Mannheim Diagnostics high performance cholesterol assay. Briefly the cholesterol was oxidized to cholest-4-en-3-one and hydrogen peroxide. The hydrogen peroxide was then reacted with phenol and 4-aminophenazone in the presence of peroxidase to produce a p-quinone imine dye, which was read spectrophotometrically at 500 nm. Cholesterol concentration was then calculated against a standard curve. The entire assay was automated using a Biomek Automated Workstation.
as §3, §4

| Structure (SMILES) | change in vivo at 1 mg/kg (uterus) [%] | change in vivo at 10 mg/kg (uterus) [%] | change in vivo at 25 mg/kg (uterus) [%] | Uterine EPO (V. max) ([1]; 1 mg/kg oral) | Uterine EPO (V. max) ([1]; 10 mg/kg oral) | Uterine EPO (V. max) ([1]; 25 mg/kg oral) | inhibition in vivo at 1 mg/kg (Serum cholesterol) [%] | inhibition in vivo at 10 mg/kg (Serum cholesterol) [%] | inhibition in vivo at 25 mg/kg (Serum cholesterol) [%] | ED50 (Serum cholesterol) [mg/kg] | inhibition in vivo at 0.1 mg/kg (Serum cholesterol) [%] | change in vivo at 0.1 mg/kg (uterus) [%] | Uterine EPO (V. max) ([1]; 0.1 mg/kg oral) |
| --- | --- | --- | --- | --- | --- | --- | --- | --- | --- | --- | --- | --- | --- |
| Cc1ccc(-c2ccc(O)cc2)c(-c2ccc(OCCN3CCOCC3)cc2)n1 [Example 11, 2-[4-[2-(4-Morpholinyl)ethoxy]phenyl]-3-(4-hydroxyphenyl)-6-methylpyridine] | -0.8 | 27 | 5 | 4.8 | 4.9 | 4.4 | 16 | 18.2 | -3.6 | > 10 | – | – | – |
| COc1ccc(-c2ccc(C)nc2-c2ccc(OCCN3CCCCC3)cc2)cc1 [Example 7, 2-[4-[2-(1-Piperidinyl)ethoxy]phenyl]-3-(4-methoxyphenyl)-6-methylpyridine] | – | – | -5.6 | – | – | 3.6 | – | – | -1.2 | – | 23.2 | – | – |
| COc1ccc(-c2ccc(-c3ccc(OC)cc3)c(-c3ccc(OCCN4CCCC4)cc3)n2)cc1 [Example 5, 2-[4-[2-(1-Pyrrolidinyl)ethoxy]phenyl]-3,6-bis(4-methoxyphenyl)pyridine] | -7.6 | 27.2 | – | 4.2 | 23.1 | – | 14 | 23.5 | – | > 10 | 2.4 | -6.5 | 4.5 |
| COc1ccc(-c2ccc(C)nc2-c2ccc(OCCN(C)C)cc2)cc1 [Example 1, 2-[4-[2-(1-N,N-Dimethylamino)ethoxy]phenyl]-3-(4-methoxyphenyl)-6-methylpyridine] | 0.6 | 2.6 | 5.2 | 2.9 | 2.5 | 2.3 | 15 | 14.9 | 22.2 | > 1000 | – | – | – |
| COc1ccc(-c2ccc(C)nc2-c2ccc(OCCN3CCCC3)cc2)cc1 [Example 2, 2-[4-[2-(1-Pyrrolidinyl)ethoxy]phenyl]-3-(4-methoxyphenyl)-6-methylpyridine] | 12.7 | -12.5 | 19.5 | 6.6 | 5.9 | 59.8 | -23.6 | -33.5 | 9.7 | > 10 | – | – | – |
| Cc1ccc(-c2ccc(O)cc2)c(-c2ccc(OCCN3CCCCC3)cc2)n1 [Example 10, 2-[4-[2-(1-Piperidinyl)ethoxy]phenyl]-3-(4-hydroxyphenyl)-6-methylpyridine] | 3.4 | 7 | 47 | 4.4 | 3.4 | 6.8 | 8.4 | 1.7 | 17.9 | > 10 | – | – | – |
| Cc1ccc(-c2ccc(O)cc2)c(-c2ccc(OCCN(C)C)cc2)n1 [Example 8, 2-[4-[2-(N,N-Dimethylamino)ethoxy]phenyl]-3-(4-hydroxyphenyl)-6-methylpyridine] | -1.5 | -1 | 41.6 | 5 | 6.7 | 58.6 | 15.7 | 1.5 | 46.4 | 26 | – | – | – |
| Oc1ccc(-c2ccc(-c3ccccc3)nc2-c2ccc(OCCN3CCCC3)cc2)cc1 [Example 13, 2-[4-[2-(1-Pyrrolidinyl)ethoxy]phenyl]-3-(4-hydroxyphenyl)-6-phenylpyridine] | 54 | 38.8 | 35.5 | – | – | – | 53.8 | 36.8 | – | < 1 | 1.8 | 23.8 | 4.5 |
| COc1ccc(-c2ccc(C)nc2-c2ccc(OCCN3CCOCC3)cc2)cc1 [Example 3, 2-[4-[2-(4-Morpholinyl)ethoxy]phenyl]-3-(4-methoxyphenyl)-6-methylpyridine] | 4.9 | -6.1 | -2.3 | 10.8 | 6 | 3.8 | 4.5 | 1.4 | -11.6 | > 10 | – | – | – |
